Where “and” joins values, the source holds several entries; their conditions need not be identical. Equal entries are not always repeated.
Assays:
NRAS Q61K = NRAS Q61K (Homo sapiens (Human), UniProt P01111+P62937, Q61K); experiment: Ras-Raf (BRAF RBD) disruption / FRET / MOA assay, NRAS Q61K; type: biochemical; settings: NRAS Q61K; Ras-Raf disruption/FRET/MOA assay; read-out: IC50* NRAS Q61K FRET data
In short: (§1)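 TR-FRET disruption of nucleotide-loaded Ras binding to BRAF RBD via compound-driven ternary complex with cyclophilin A. Compound as 10-point 3-fold series from 30 μM final, 3 h at 25° C, then anti-His Eu-W1024 (10 nM) and anti-GST allophycocyanin (50 nM) for 1.5 h. IC50 from decreased FRET ratio versus DMSO.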

K-Ras G12C = K-Ras G12C (Homo sapiens (Human), UniProt P01116+P62937, G12C); experiment: Ras-Raf (BRAF RBD) disruption / FRET / MOA assay, KRAS G12C; type: biochemical; settings: KRAS G12C; Ras-Raf disruption/FRET/MOA assay; read-out: IC50* KRAS G12C FRET data
K-Ras G12C, sequence (P01116-2 other isoform, or with tags, fused parts or gaps G12C): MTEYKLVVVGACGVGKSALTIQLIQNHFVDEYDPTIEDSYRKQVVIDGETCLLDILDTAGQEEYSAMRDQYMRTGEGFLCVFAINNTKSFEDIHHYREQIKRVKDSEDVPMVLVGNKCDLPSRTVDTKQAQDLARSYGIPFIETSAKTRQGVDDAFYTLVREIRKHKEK
K-Ras G12C, sequence (P62937 whole entry): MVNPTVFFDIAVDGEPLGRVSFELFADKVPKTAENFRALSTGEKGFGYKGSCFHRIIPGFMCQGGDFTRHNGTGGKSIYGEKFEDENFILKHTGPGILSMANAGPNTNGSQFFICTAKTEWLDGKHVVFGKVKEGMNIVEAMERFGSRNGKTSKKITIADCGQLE
In short: (§2)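 Ras:RAF disruption was scored as a fall in TR-FRET ratio relative to DMSO. Compound ranged in 3-fold steps over 10 points from 30 μM final; incubation ran 3 h at 25° C, detection antibodies a further 1.5 h. Reported as IC50.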

KRAS G12V = KRAS G12V (Homo sapiens (Human), UniProt P01116+P62937, G12V); experiment: Ras-Raf (BRAF RBD) disruption / FRET / MOA assay, KRAS G12V; type: biochemical; settings: read-out: IC50* KRAS G12V FRET data
KRAS G12V, sequence (P01116-2 other isoform, or with tags, fused parts or gaps G12V): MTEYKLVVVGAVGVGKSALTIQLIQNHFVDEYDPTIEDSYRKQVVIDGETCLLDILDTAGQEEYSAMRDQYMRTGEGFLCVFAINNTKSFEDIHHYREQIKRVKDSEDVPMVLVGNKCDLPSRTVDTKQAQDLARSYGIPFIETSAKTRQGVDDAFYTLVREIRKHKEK
KRAS G12V, sequence (P62937 whole entry): as the sequence (P62937 whole entry) above
In short: as §2

NRAS WT = NRAS WT (Homo sapiens (Human), UniProt P01111+P62937); experiment: Ras-Raf (BRAF RBD) disruption / FRET / MOA assay, NRAS WT; type: biochemical; settings: read-out: IC50* NRAS WT FRET data
NRAS WT, sequence (P01111 whole entry): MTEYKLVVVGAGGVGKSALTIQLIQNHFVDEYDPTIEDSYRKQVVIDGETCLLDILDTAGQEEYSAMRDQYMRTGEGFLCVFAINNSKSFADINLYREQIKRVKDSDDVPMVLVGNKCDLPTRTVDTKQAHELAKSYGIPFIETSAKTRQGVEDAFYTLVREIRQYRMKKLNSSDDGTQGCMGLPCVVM
NRAS WT, sequence (P62937 whole entry): as the sequence (P62937 whole entry) above
In short: as §1

KRAS WT = KRAS WT (Homo sapiens (Human), UniProt P01116+P62937); experiment: Ras-Raf (BRAF RBD) disruption / FRET / MOA assay, KRAS WT; type: biochemical; settings: read-out: IC50* KRAS WT FRET data
KRAS WT, sequence (P01116-2 other isoform, or with tags, fused parts or gaps): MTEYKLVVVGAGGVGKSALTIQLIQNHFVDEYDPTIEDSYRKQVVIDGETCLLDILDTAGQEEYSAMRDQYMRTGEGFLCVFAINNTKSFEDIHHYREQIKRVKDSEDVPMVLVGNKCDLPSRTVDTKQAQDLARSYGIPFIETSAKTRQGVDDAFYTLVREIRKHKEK
KRAS WT, sequence (P62937 whole entry): as the sequence (P62937 whole entry) above
In short: as §2

K-Ras G13C = K-Ras G13C (Homo sapiens (Human), UniProt P01116+P62937, G13C); experiment: Ras-Raf (BRAF RBD) disruption / FRET / MOA assay, KRAS G13C; type: biochemical; settings: KRAS G13C; Ras-Raf disruption/FRET/MOA assay; read-out: IC50* KRAS G13C FRET data
K-Ras G13C, sequence (P01116-2 other isoform, or with tags, fused parts or gaps G13C): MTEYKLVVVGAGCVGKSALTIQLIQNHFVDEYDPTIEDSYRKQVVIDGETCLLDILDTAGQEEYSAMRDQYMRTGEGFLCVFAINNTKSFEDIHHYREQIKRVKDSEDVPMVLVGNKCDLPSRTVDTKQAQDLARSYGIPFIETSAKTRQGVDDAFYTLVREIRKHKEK
K-Ras G13C, sequence (P62937 whole entry): as the sequence (P62937 whole entry) above
In short: as §2

KRAS G12D = KRAS G12D (Homo sapiens (Human), UniProt P01116+P62937, G12D); experiment: Ras-Raf (BRAF RBD) disruption / FRET / MOA assay, KRAS G12D; type: biochemical; settings: Ras-Raf disruption/FRET/MOA assay; class symbols; read-out: KRAS G12D FRET data IC50
KRAS G12D, sequence (P01116-2 other isoform, or with tags, fused parts or gaps G12D): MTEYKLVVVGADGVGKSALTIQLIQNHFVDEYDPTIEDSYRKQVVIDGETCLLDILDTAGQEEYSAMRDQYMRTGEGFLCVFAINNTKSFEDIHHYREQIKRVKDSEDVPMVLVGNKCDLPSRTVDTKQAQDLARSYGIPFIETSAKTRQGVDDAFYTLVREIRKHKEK
KRAS G12D, sequence (P62937 whole entry): as the sequence (P62937 whole entry) above
In short: as §2

NRAS Q61R = NRAS Q61R (Homo sapiens (Human), UniProt P01111+P62937, Q61R); experiment: Ras-Raf (BRAF RBD) disruption / FRET / MOA assay, NRAS Q61R; type: biochemical; settings: NRAS Q61R; Ras-Raf disruption/FRET/MOA assay; read-out: IC50* NRAS Q61R FRET data
NRAS Q61R, sequence (P01111 whole entry Q61R): as the sequence (P01111 whole entry) above, with Q61R counted along it
NRAS Q61R, sequence (P62937 whole entry): as the sequence (P62937 whole entry) above
In short: as §1

KRAS G12S = KRAS G12S (Homo sapiens (Human), UniProt P01116+P62937, G12S); experiment: Ras-Raf (BRAF RBD) disruption / FRET / MOA assay, KRAS G12S; type: biochemical; settings: Ras-Raf disruption/FRET/MOA assay; class symbols; read-out: KRAS G12S FRET data IC50
KRAS G12S, sequence (P01116-2 other isoform, or with tags, fused parts or gaps G12S): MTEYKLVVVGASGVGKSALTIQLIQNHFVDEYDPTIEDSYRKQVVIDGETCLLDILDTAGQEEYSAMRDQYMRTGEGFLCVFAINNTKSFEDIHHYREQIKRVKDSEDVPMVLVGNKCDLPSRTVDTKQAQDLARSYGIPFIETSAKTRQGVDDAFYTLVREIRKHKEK
KRAS G12S, sequence (P62937 whole entry): as the sequence (P62937 whole entry) above
In short: as §2

NCI-H358 (K-Ras G12C) = experiment: CellTiter-Glo cell viability assay, NCI-H358; type: cell-based, human; settings: Homo sapiens, NCI-H358, 120 h, NCI-H358, 5-day treatment; class symbols; read-out: Additional H358 Cell Viability assay data (K-Ras G12C, IC50)
In short: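 Viability measured by CellTiter-Glo luminescence on day 5 following direct addition of compound to plated cells. Values expressed as percent of mean DMSO signal; curves fitted with a four-parameter logistic model.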

KRAS G13D = KRAS G13D (Homo sapiens (Human), UniProt P01116+P62937, G13D); experiment: Ras-Raf (BRAF RBD) disruption / FRET / MOA assay, KRAS G13D; type: biochemical; settings: read-out: IC50* KRAS G13D FRET data
KRAS G13D, sequence (P01116-2 other isoform, or with tags, fused parts or gaps G13D): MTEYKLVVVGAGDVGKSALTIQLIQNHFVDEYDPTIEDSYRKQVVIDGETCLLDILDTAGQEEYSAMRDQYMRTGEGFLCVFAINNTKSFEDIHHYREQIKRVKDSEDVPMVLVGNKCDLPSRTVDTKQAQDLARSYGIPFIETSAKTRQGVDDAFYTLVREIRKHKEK
KRAS G13D, sequence (P62937 whole entry): as the sequence (P62937 whole entry) above
In short: as §2

NRAS G12C = NRAS G12C (Homo sapiens (Human), UniProt P01111+P62937, G12C); experiment: Ras-Raf (BRAF RBD) disruption / FRET / MOA assay, NRAS G12C; type: biochemical; settings: read-out: IC50* NRAS G12C FRET data
NRAS G12C, sequence (P01111 whole entry G12C): as the sequence (P01111 whole entry) above, with G12C counted along it
NRAS G12C, sequence (P62937 whole entry): as the sequence (P62937 whole entry) above
In short: as §2

KRAS Q61H = KRAS Q61H (Homo sapiens (Human), UniProt P01116+P62937, Q61H); experiment: Ras-Raf (BRAF RBD) disruption / FRET / MOA assay, KRAS Q61H; type: biochemical; settings: Ras-Raf disruption/FRET/MOA assay; class symbols; read-out: KRAS Q61H FRET data IC50
KRAS Q61H, sequence (P01116-2 other isoform, or with tags, fused parts or gaps Q61H): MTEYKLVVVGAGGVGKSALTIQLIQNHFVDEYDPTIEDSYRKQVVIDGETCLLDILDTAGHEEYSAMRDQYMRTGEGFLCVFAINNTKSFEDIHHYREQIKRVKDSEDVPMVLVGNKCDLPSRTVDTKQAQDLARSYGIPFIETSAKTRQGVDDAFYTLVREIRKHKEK
KRAS Q61H, sequence (P62937 whole entry): as the sequence (P62937 whole entry) above
In short: as §1

[1] = test system: NCI-H358 cells (K-Ras G12C); experiment: Potency assay: pERK in NCI-H358 cells; type: cell-based, human; settings: Homo sapiens, NCI-H358; H358 KRAS G12C; read-out: pERK EC50
In short: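 4 h cpd, 37 °C; 10-pt 3-fold series, 10 mM DMSO top stock, duplicates. Readout pERK: AlphaLISA SureFire Ultra or In-Cell Western (IR-800CW secondary, DRAQ5 DNA stain). IC50, 4-PL fit vs log conc.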

NRAS Q61K, sequence (P01111 whole entry Q61K): as the sequence (P01111 whole entry) above, with Q61K counted along it
NRAS Q61K, sequence (P62937 whole entry): as the sequence (P62937 whole entry) above

Structure (SMILES) | IC50 (NRAS Q61K) [µM] | IC50 (K-Ras G12C) | IC50 (KRAS G12V) | IC50 (NRAS WT) [µM] | IC50 (KRAS WT) [µM] | IC50 (K-Ras G13C) [µM] | IC50 (KRAS G12D) [µM] | IC50 (NRAS Q61R) [µM] | IC50 (KRAS G12S) | IC50 (NCI-H358 (K-Ras G12C)) [µM] | IC50 (KRAS G13D) [µM] | IC50 (NRAS G12C) | IC50 (KRAS Q61H) [µM] | EC50 [1] [µM]
C=CC(=O)N1CC[C@H](C(=O)N(C)[C@H](C(=O)N[C@H]2CC3=NN=C(S3)c3ccc4c(c3)c(c(-c3cccnc3[C@H](C)OC)n4CC)CC(C)(C)COC(=O)[C@@H]3CCCN(N3)C2=O)C(C)C)C1 (atropisomer, axis not shown) [Example A248] | > 10 | 1 to 10 µM | > 10 µM | > 10 | > 10 | > 10 | > 10 | > 10 | > 10 µM | > 1 | > 10 | 1 to 10 µM | > 10 | –
CC#CC(=O)N1CC[C@H](C(=O)N(C)[C@H](C(=O)N[C@H]2Cc3cccc(c3)-c3ccc4c(c3)c(c(-c3cccnc3[C@H](C)OC)n4C#N)CC(C)(C)COC(=O)[C@@H]3CCCN(N3)C2=O)C(C)C)C1 (atropisomer, axis not shown) [Example A304] | > 10 | > 10 µM | > 10 µM | > 10 | > 10 | > 10 | > 10 | > 10 | > 10 µM | 0.1 to 1 | > 10 | > 10 µM | > 10 | –
C=CC(=O)N(C)C(=O)N(C)[C@H](C(=O)N[C@H]1Cc2nc(cs2)-c2ccc3c(c2)c(c(-c2cccnc2[C@H](C)OC)n3CC)CC(C)(C)COC(=O)[C@@H]2CCCN(N2)C1=O)C(C)C (atropisomer, axis not shown) [Example A355] | > 10 | > 10 µM | > 10 µM | > 10 | > 10 | > 10 | > 10 | > 10 | > 10 µM | 0.1 to 1 | > 10 | > 10 µM | > 10 | –
C=CC(=O)N1CC[C@H](C(=O)N(C)[C@H](C(=O)N[C@H]2Cc3cccc(c3)-c3ccc4c(c3)c(c(-c3cnn(C)c3CN(C)C)n4CC)CC(C)(C)COC(=O)[C@@H]3CCCN(N3)C2=O)C(C)C)C1 (relative stereo) [Example A329] | > 10 | > 10 µM | > 10 µM | > 10 | > 10 | > 10 | > 10 | > 10 | > 10 µM | 0.1 to 1 | > 10 | > 10 µM | > 10 | –
C=CC(=O)N1CC[C@H](C(=O)N(C)[C@H](C(=O)N[C@H]2Cc3cc(O)cc(c3)-c3cc4c(c(-c5ccccc5CCOC)n(CC)c4cn3)CC(C)(C)COC(=O)[C@@H]3CCCN(N3)C2=O)C(C)C)C1 [Example A102] | > 10 | 1 to 10 µM | > 10 µM | > 10 | > 10 | > 10 | > 10 | > 10 | > 10 µM | > 1 | > 10 | 1 to 10 µM | 1 to 10 | –
C=CC(=O)C1C[C@@H](C(=O)N(C)[C@H](C(=O)N[C@H]2Cc3cc(O)cc(c3)-c3ccc4c(n3)c(c(-c3ccccc3CCOC)n4CC)CC(C)(C)COC(=O)[C@@H]3CCCN(N3)C2=O)C(C)C)CN1 (some centres unmarked) [Example A211] | 1 to 10 | 100 nM to 1 µM and 1 µM to 10 µM and > 10 µM (2×) | 1 µM to 10 µM and > 10 µM (3×) | 1 to 10 | > 10 | > 10 | > 10 | > 10 | 1 µM to 10 µM and > 10 µM (3×) | – | > 10 | 100 nM to 1 µM and 1 µM to 10 µM and > 10 µM (2×) | 1 to 10 | < 5
C=CC(=O)N1CC[C@H](C(=O)N(C)[C@H](C(=O)N[C@H]2Cc3cc(O)cc(c3)-c3ccc4nc(-c5cccnc5[C@H](C)OC)n(c4c3)CC(C)(C)COC(=O)[C@@H]3CCCN(N3)C2=O)C(C)C)C1 [Example A242] | > 10 | 1 to 10 µM | 1 to 10 µM | > 10 | > 10 | 1 to 10 | > 10 | > 10 | > 10 µM | > 1 | > 10 | 1 to 10 µM | 1 to 10 | –
C=CC(=O)N1CC[C@H](C(=O)N(C)[C@H](C(=O)N[C@H]2Cc3cc(O)cc(c3)-c3ccc4nc(-c5cccnc5COC)c(n4c3)CC(C)(C)COC(=O)[C@@H]3CCCN(N3)C2=O)C(C)C)C1 [Example A243] | > 10 | > 10 µM | > 10 µM | > 10 | > 10 | > 10 | > 10 | > 10 | > 10 µM | > 1 | > 10 | > 10 µM | > 10 | –
C=CC(=O)N1CC[C@H](C(=O)N(C)[C@H](C(=O)NC2C[C@@H]3CN(CCO3)c3ccc4c(c3)c(c(-c3cccnc3[C@H](C)OC)n4CC)CC(C)(C)COC(=O)[C@@H]3CC(Br)CN(N3)C2=O)C(C)C)C1 (some centres unmarked) [Example A313] | > 10 | 1 to 10 µM | > 10 µM | > 10 | > 10 | > 10 | > 10 | > 10 | > 10 µM | > 1 | > 10 | 1 to 10 µM | > 10 | –
C=CC(=O)N1CC[C@H](C(=O)N(C)[C@H](C(=O)N[C@H]2Cc3nc(cs3)-c3ccc4c(n3)c(c(-c3cccnc3[C@H](C)OC)n4CC)CC(C)(C)COC(=O)[C@@H]3CCCN(N3)C2=O)C(C)C)C1 [Example A347, (2S)-N-[(7S,13S)-21-ethyl-20-{2-[(1S)-1-methoxyethyl]pyridin-3-yl}-17,17-dimethyl-8,14-dioxo-15-oxa-4-thia-9,21,25,27,28-pentaazapentacyclo[17.5.2.1^{2,5}.1^{9,13}.0^{22,26}]octacosa-1(25),2,5(28),19,22(26),23-hexaen-7-yl]-3-methyl-2-{N-methyl-1-[(3S)-1-(prop-2-enoyl)pyrrolidin-3-yl]formamido}butanamide] | 1 to 10 | 0.1 to 1 µM | > 10 µM | 1 to 10 | 1 to 10 | 1 to 10 | > 10 | 1 to 10 | 1 to 10 µM | – | > 10 | 0.1 to 1 µM | 1 to 10 | < 5
C=CC(=O)N1CCO[C@@H]2CCN(C(=O)N(C)[C@H](C(=O)N[C@H]3Cc4nc(cs4)-c4ccc5c(c4)c(c(-c4cccnc4[C@H](C)OC)n5CC)CC(C)(C)COC(=O)[C@@H]4CCCN(N4)C3=O)C(C)C)CC21 (some centres unmarked) [Example A596] | 0.01 to 0.1 | 0.01 to 0.1 µM | 0.1 to 1 µM | 0.01 to 0.1 | > 10 | 0.1 to 1 | 0.1 to 1 | 0.01 to 0.1 | 0.01 to 0.1 µM | – | 0.1 to 1 | 0.01 to 0.1 µM | 0.01 to 0.1 | < 5
